One data set addresses X. tropicalis Tmem16a (Xenopus tropicalis, UniProt W8PFC5). Briefly: Whole-cell patch clamp (QPatch) of X. tropicalis Tmem16a transfected into HEK293 cells. Type of data set: cell-based. The procedure:
We cloned and expressed full-length X. tropicalis tmem16a in HEK293 cells. At 48 h post-transfection, channel conductance and pharmacological characteristics were examined by whole-cell voltage clamp. Tmem16a channel activity was evoked using membrane depolarisation in the presence of intracellular calcium, and resultant whole-cell currents measured using chloride-selective buffers.
HEK Flp-In-293 null cells (Thermo Fisher) were stored, thawed and cultured as described by the supplier, but without antibiotic supplementation of the growth medium. For transfections, cells were seeded in 75 cm^2 vented culture flasks at a density of 0.018 × 10^6 cells per cm^2 and maintained at 37 °C in 5% CO2 for 24 h, to ensure approximately 40% confluence at the point of transfection. Cells were transfected with 6 µg of pCS2-tmem16a plasmid in a 1:6 volume ratio with transfection reagent GeneJammer (Agilent), according to the manufacturer’s protocol. Transfected cells were maintained in antibiotic-free growth medium at 37 °C in 5% CO2 for 24 h. The transfection medium was then aspirated, replaced with complete growth medium containing 1% penicillin-streptomycin (GIBCO), and cells cultured for a further 24 h at 37 °C in 5% CO2 to achieve 70–80% confluence prior to electrophysiology studies. HEK cells expressing Tmem16a were harvested using a 2:1 volume ratio of Detachin (AMSBio) and 0.05% Trypsin-EDTA (GIBCO), and resuspended in CHO serum-free medium (GIBCO) supplemented with 25 mM HEPES (GIBCO) and 0.04 mg ml^−1 trypsin inhibitor (Sigma Aldrich) to a density of 2.5-5.0 × 10^6 cells ml^−1. […] To prevent clumping of the suspended cells prior to assay, the cell suspension was maintained by stirring gently but continually at room temperature for 20 min to 2 hours.
Single cell whole-cell patch clamp recordings were performed using the QPatch planar patch-clamp system (Sophion Biosciences). The automated platform resuspended the cells in extracellular buffer containing NMDG-Cl (130 mM), HEPES (10 mM), CaCl2 (2 mM) and MgCl2 (1 mM), adjusted to pH 7.30 using HCl and 325 mOsm using sucrose. On establishing single-cell giga-Ohm seals, cell membranes were ruptured by suction pulse and dialysed with intracellular solution containing NMDG-Cl (130 mM), EGTA (20 mM), CaCl2 (20 mM; calculated to deliver a free intracellular [Ca^2+] of 338 nM (https://somapp.ucdmc.ucdavis.edu/pharmacology/bers/maxchelator/webmaxc/webmaxcE.htm) at 22 °C to achieve high Tmem16a-mediated current activation for testing inhibitor compounds), HEPES (10 mM), BAPTA (10 mM), MgCl2 (1 mM) and Mg-ATP (2 mM), adjusted to pH 7.25 using HCl and 325 mOsm using sucrose. The calcium activation curve was achieved by varying CaCl2 concentration from 0 to 25.7 mM to generate a 0-1000 nM range of free intracellular [Ca^2+].
Whole-cell recordings were performed from a resting membrane potential of - 70 mV, applied across the cell membrane between an intracellular (working) and extracellular (reference) electrode in each QPatch recording well. To activate Tmem16a currents, the membrane was depolarised once every 20 s for a duration of 1 s. For concentration-response experiments, this depolarising step was set to + 70 mV. To test current-voltage relationship, the depolarisations were varied between − 90 and + 90 mV in 20 mV increments. Signals were subject to fourth-order Bessel filtering (sampling frequency 10 kHz, cut-off 3 kHz). Capacitance and series resistance were monitored throughout the recordings; data was only accepted from wells in which these parameters remained stable.
All current data was captured at the end of the 1 s depolarising voltage step.

The test system of the next data set is human TMEM16Aacd. As to conditions: cited from earlier work.
For the next data set, the system named is human TMEM16Aabc. As to conditions: whole-cell patch clamp ref 65; cited from earlier work. A general note: In patch-clamp work, channel activity is measured electrically.
The test system of data set [1] is background chloride current of sham HEK-293 transfects. Briefly: Whole-cell patch clamp of sham-transfected HEK cells (background chloride current). Type of data set: cell-based. As to conditions: 100 µM CaCCinh-A01. From the text:
Methods: Pharmacology data was generated from 16 QPatch runs. […] This definition of ‘transfected’ vs ‘untransfected’ was established by comparing transfected cell recordings with ‘sham’ transfects, i.e. cells that had undergone the same transfection process but with the omission of plasmid DNA (Supplementary Figure S1). […] Cells with these characteristics were deemed to be expressing X. tropicalis Tmem16a, and only recordings from successfully-transfected cells which additionally passed seal/series resistance and capacitance quality control criteria, were used in analysis of X. tropicalis Tmem16a currents.

The subject of the next data set is human TMEM16A. The conditions noted are these: cited from earlier work.
In a further data set the test system is Tmem16a. Nature of the data set: Wholemount immunofluorescence for Tmem16a in tadpole skin after morpholino injection. Type of data set: in vivo, Xenopus tropicalis. As to conditions: 15 ng MO injected into fertilised egg, tadpoles at NF38, vs MOC. The method, then: (§1) Embryos for microinjection were de-jellied for approximately five minutes in 0.1 X MMR containing 2% (w/v) L-cysteine (pH 7.8), and washed several times in 0.1 X MMR. Microinjections were performed at NF1/fertilised egg (or, where indicated in the text, NF4/8-cell stage) using a Picospritzer III microinjector (Intracel) to inject 1–4 nl volumes. During injection and for one hour after, embryos were maintained in 0.1 X MMR containing 2% (w/v) Ficoll™ 400 (Thermo Fisher). Antisense morpholino oligonucleotides (MO) and standard control MO (MOC) were designed by and purchased from Gene Tools LLC. MO sequences were: MOC 5′-[…]-3′; tmem16a splice MO 5’-[…]-3’. MOs were reconstituted to 20 ng nl^−1 in non-DEPC-treated nuclease-free water (Thermo Fisher) and stored in small aliquots in tightly-sealed vials at room temperature. MOs were heated at 65 °C for five minutes then vortexed before dilution/use, to ensure the MO was fully dissolved. […]
Wholemount chromogenic and fluorescence in situ hybridisation was performed as previously described[84],[85]. […] Chromogenic staining and fluorescence were visualised by stereomicroscopy (Leica M165 FC using Leica Application Suite X v5.2.2 software) and fluorescence by confocal imaging (Olympus IX81 using FV10-ASW v4.2 software). […] Fiji v2.14.0 software[88] was used to convert images into colours accesible to colour-blind readers.

Data set [2] relates to MucXS secretion from tadpole skin. Briefly: Ionomycin-induced MucXS secretion into tadpole media (slot blot, anti-MucXS). Type of data set: in vivo, Xenopus tropicalis. As to conditions: 10 min, MO- vs MOC-injected embryos, three biological replicates, p = 0.0062. The method, then: as §1
Batches of 100 NF42 embryos were collected in 500 µl 0.01 X MMR in a single well of a 24-well plate. […] MucXS in unfractionated or fractionated media was detected via slot blotting and subsequent immunodetection with an anti-MucXS antibody. Quantification of signal from slot blots was achieved using Fiji v2.14.0 software to capture the raw integrated density of pixels for each signal band. […]

[3] abbreviates: maximally-active current, 338 nM free [Ca2+]i (EC100), +70 mV, HEK293, mean ± SEM, read-out: IC50 X. tropicalis Tmem16a.

One may read the IC50 as the concentration that gives 50% inhibition. A word on the EC50: it is the concentration at which the effect is half-maximal.

Read-outs that look alike come from different tables or passages of the source.

Chain of X. tropicalis Tmem16a (W8PFC5 entry or part of it): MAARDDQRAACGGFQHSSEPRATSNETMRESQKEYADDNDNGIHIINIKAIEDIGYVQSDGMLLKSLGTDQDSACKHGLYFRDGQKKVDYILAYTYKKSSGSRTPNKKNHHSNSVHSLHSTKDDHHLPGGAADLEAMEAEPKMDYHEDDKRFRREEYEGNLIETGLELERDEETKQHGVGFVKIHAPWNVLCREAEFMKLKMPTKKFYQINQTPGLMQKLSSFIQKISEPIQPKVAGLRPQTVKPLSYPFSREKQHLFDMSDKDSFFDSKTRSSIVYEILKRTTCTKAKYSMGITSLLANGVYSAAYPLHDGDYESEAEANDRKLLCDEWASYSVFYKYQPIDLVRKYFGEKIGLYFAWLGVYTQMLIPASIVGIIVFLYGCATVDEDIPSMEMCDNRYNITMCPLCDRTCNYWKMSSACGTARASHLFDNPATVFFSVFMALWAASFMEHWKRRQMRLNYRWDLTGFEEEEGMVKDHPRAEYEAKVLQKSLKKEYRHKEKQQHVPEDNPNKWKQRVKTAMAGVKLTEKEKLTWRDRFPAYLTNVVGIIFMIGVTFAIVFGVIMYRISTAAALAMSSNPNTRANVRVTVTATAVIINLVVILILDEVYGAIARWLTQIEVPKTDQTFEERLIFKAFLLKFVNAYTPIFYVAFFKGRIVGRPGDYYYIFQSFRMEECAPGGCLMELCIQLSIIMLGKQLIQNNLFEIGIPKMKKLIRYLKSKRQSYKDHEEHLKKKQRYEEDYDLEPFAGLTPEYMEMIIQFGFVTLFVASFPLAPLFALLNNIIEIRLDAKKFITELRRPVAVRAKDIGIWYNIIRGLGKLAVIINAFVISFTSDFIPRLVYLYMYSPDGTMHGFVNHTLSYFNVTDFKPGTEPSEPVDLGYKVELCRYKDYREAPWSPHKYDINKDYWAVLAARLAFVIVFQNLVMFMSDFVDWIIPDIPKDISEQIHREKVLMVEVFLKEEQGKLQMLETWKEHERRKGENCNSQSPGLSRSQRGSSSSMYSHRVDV

In the case of `O=C(O)c1c2ccccc2cc2ccccc12` [9-AC], the IC50 at X. tropicalis Tmem16a (setting [3]) is 146 ± 65.8 µM; with human TMEM16Aacd (whole-cell patch clamp ref 60), 57.7 µM.
Consider `COc1ccccc1/C=N/NC(=O)COc1ccc(Cl)cc1C` [Ani9], for which the “Block of large slowly-activating current in tmem16a-transfected cells” value at X. tropicalis Tmem16a (10 µM Ani9) is recorded as “sensitivity to block”. In addition, at X. tropicalis Tmem16a (10 µM Ani9, 1 s step from -70 to +70 mV, 338 nM free [Ca2+]i), the “Inhibition of evoked Tmem16a current” value is “completely inhibited”. Moreover, the “Inhibition of Tmem16a current conductance at varied [Ca2+]i” value on X. tropicalis Tmem16a (10 µM Ani9, all calcium concentrations, fixed depolarisation voltage) is given as “inhibited at all calcium concentrations”. In addition, the IC50 at X. tropicalis Tmem16a (setting [3]) was found to be 0.098 ± 0.009 µM.
Turning to `CCc1oc2ccccc2c1C(=O)c1cc(Br)c(O)c(Br)c1` [Benzbromarone], the IC50 at X. tropicalis Tmem16a was 3.3 ± 1.45 µM; in the data set with human TMEM16Aacd (whole-cell patch clamp ref 63), 4.09 µM; with human TMEM16Aacd (whole-cell patch clamp ref 64), 2.35 µM; in the data set on human TMEM16Aabc it was 3.05 µM.
For `O=C(O)c1ccc(/C=C2\SC(=S)N(c3cccc(C(F)(F)F)c3)C2=O)cc1` [CFTR Inh-172], the IC50 at X. tropicalis Tmem16a (setting [3]) is above 30 µM.
With `CC(C)(C)C1CCc2c(sc(NC(=O)c3ccco3)c2C(=O)O)C1` (stereo not shown) [CaCCinhA01], the “Block of large slowly-activating current in tmem16a-transfected cells” value at X. tropicalis Tmem16a (100 µM CaCCinh-A01) is reported as “sensitivity to block”. The results for the IC50 on X. tropicalis Tmem16a (setting [3]) and in the data set with human TMEM16A (whole-cell patch clamp ref 62) were 12.9 ± 1.96 µM and […], respectively. Also, in data set [1], the “Block of background chloride current in sham transfects” value is recorded as “blocked”.
In the case of `COC1=C(OC)C(=O)C(CCCCCCCCCCO)=C(C)C1=O` [Idebenone], on X. tropicalis Tmem16a (setting [3]), the IC50 is above 30 µM. In addition, the “% inhibition human TMEM16A by 10 µM” value with human TMEM16A (10 µM, whole-cell patch clamp ref 61) is listed as 54%. For the same compound, the “% inhibition human TMEM16A by 30 µM” value in the data set on human TMEM16A (30 µM, whole-cell patch clamp ref 61) was 90%.
With `COc1cc(Nc2ccc([N+](=O)[O-])cc2C(=O)O)cc2ccccc12` [MONNA], the results for the IC50 on X. tropicalis Tmem16a (setting [3]) and in the data set on human TMEM16Aacd (whole-cell patch clamp ref 63) were 11.9 ± 3.45 µM and 13.6 µM, respectively.
As for `O=C(O)c1cccnc1Nc1cccc(C(F)(F)F)c1` [Niflumic acid], the IC50 against X. tropicalis Tmem16a was 85.1 ± 19.1 µM; in the data set with human TMEM16Aacd (whole-cell patch clamp ref 60), 12.1 µM; in the data set on human TMEM16Aacd (whole-cell patch clamp ref 61), 8.34 µM; in the data set with human TMEM16Aacd (whole-cell patch clamp ref 63) it was 8.54 µM.
For `CCc1c(C)nc(SCC(=O)Nc2nc(-c3ccc(OC)cc3)cs2)[nH]c1=O` [T16inh-A01], the “Direct inhibition of X. tropicalis Tmem16a channel function” value on X. tropicalis Tmem16a (maximal conductance, 338 nM free [Ca2+]i, +70 mV) was “did not directly inhibit”. Besides, the half-inhibitory concentration (IC50) is above 30 µM on X. tropicalis Tmem16a (setting [3]), 1.51 µM in the data set on human TMEM16Aacd (whole-cell patch clamp ref 60) and above 30 µM in the data set on human TMEM16Aacd (whole-cell patch clamp ref 63).
On to `[Ca+2]` [intracellular calcium, calcium], for which the EC50 at X. tropicalis Tmem16a (free [Ca2+]i varied, fixed depolarisation voltage, read-out: EC50 of intracellular calcium for current conductance) worked out at 0.227 ± 0.043 µM.
With “tmem16a splice MO: antisense morpholino oligonucleotide 5'-AATGTTCATTCTTTTTACCTCTTCA-3' targeting donor splice site of exon 2 of tmem16a pre-mRNA (all phosphorodiamidate morpholino (PMO))”, in the data set on Tmem16a, the “Tmem16a protein in the plasma membrane of SSCs in the tadpole skin” value was “complete loss”. Further, the “Increase of MucXS secretion from the tadpole skin” value in data set [2] stood at 3 fold.
